Data published in ChEMBL document CHEMBL3885861, “Open TG-GATES”.

Organism: Rattus norvegicus
Assay: Open TG-GATES - Regimen: Daily Repeat
Format: toxicity, organism-based, Sprague-Dawley
Design: regimen Daily Repeat, gender Male, age 6 weeks
Conditions: in vivo, po, route gavage; for APTT / Bas / Eos / Fbg / Hb / Ht / Lym / MCHC / MCV / Mono / Neu / PT / Plat / RBC / Ret / WBC: tissue Blood; for KIDNEY_L / KIDNEY_R / KIDNEY_TOTAL: tissue Kidney; for LIVER: tissue Liver; for ALP / ALT / AST / BUN / CRE / Ca / Cl / DBIL / GLC / IP / K / LDH / Na / PL / RALB / TBIL / TC / TG / TP / gamma-GTP: tissue Plasma
[1] = 30 mg/kg, 72 h, dose level Middle, time 3 day
[2] = 30 mg/kg, […], dose level Middle, time 7 day
[3] = 30 mg/kg, […], dose level Middle, time 14 day
[4] = 30 mg/kg, […], dose level Middle, time 28 day
[5] = 100 mg/kg, 72 h, dose level High, time 3 day
[6] = 100 mg/kg, […], dose level High, time 7 day
[7] = 100 mg/kg, […], dose level High, time 14 day
[8] = 100 mg/kg, […], dose level High, time 28 day

CS(=O)(=O)Nc1ccc([N+](=O)[O-])cc1Oc1ccccc1 [NIMESULIDE]
TERMINAL_BW [1]: 222.3 g
APTT [1]: 17.6 s
Bas [1]: 0%
Eos [1]: 1.2%
Fbg [1]: 211.4 mg/dL
Hb [1]: 13.8 g/dL
Ht [1]: 41.1%
Lym [1]: 68.6%
MCHC [1]: 33.6%
MCV [1]: 64 fL
Mono [1]: 10.6%
Neu [1]: 19.4%
PT [1]: 11.3 s
Plat [1]: 114.9 x10_4/uL
RBC [1]: 642.4 x10_4/ul
Ret [1]: 9%
WBC [1]: 80.8 x10_2/uL
KIDNEY_L [1]: 1 g
KIDNEY_R [1]: 1.1 g
KIDNEY_TOTAL [1]: 2.1 g
LIVER [1]: 11.4 g
ALP [1]: 888 IU/L
ALT [1]: 38 IU/L
AST [1]: 64.6 IU/L
BUN [1]: 19.6 mg/dL
CRE [1]: 0.6 mg/dL
Ca [1]: 10.7 mg/dL
Cl [1]: 104 meq/L
DBIL [1]: 0.054 mg/dL
GLC [1]: 196.8 mg/dL
IP [1]: 8.2 mg/dL
K [1]: 4.5 meq/L
LDH [1]: 91.4 IU/L
Na [1]: 140.8 meq/L
PL [1]: 159.2 mg/dL
RALB [1]: 4.1 g/dL
TBIL [1]: 0.4 mg/dL
TC [1]: 90.8 mg/dL
TG [1]: 75.6 mg/dL
TP [1]: 5.7 g/dL
gamma-GTP [1]: 0.8 IU/L
TERMINAL_BW [2]: 250.1 g
TERMINAL_BW [3]: 313 g
TERMINAL_BW [4]: 399.9 g
APTT [2]: 17.5 s
Bas [2]: 0%
Eos [2]: 1.4%
Fbg [2]: 221.8 mg/dL
Hb [2]: 14 g/dL
Ht [2]: 41.4%
Lym [2]: 78.4%
MCHC [2]: 33.9%
MCV [2]: 63.3 fL
Mono [2]: 6%
Neu [2]: 14%
PT [2]: 11.2 s
Plat [2]: 135 x10_4/uL
RBC [2]: 655 x10_4/ul
Ret [2]: 6.6%
WBC [2]: 109.7 x10_2/uL
APTT [3]: 16.8 s
Bas [3]: 0%
Eos [3]: 1.2%
Fbg [3]: 227.6 mg/dL
Hb [3]: 14.2 g/dL
Ht [3]: 41.4%
Lym [3]: 76.2%
MCHC [3]: 34.4%
MCV [3]: 61.6 fL
Mono [3]: 6.6%
Neu [3]: 16.4%
PT [3]: 11.7 s
Plat [3]: 126.4 x10_4/uL
RBC [3]: 672.8 x10_4/ul
Ret [3]: 6.1%
WBC [3]: 127 x10_2/uL
APTT [4]: 18.5 s
Bas [4]: 0%
Eos [4]: 1%
Fbg [4]: 219.2 mg/dL
Hb [4]: 15.3 g/dL
Ht [4]: 45%
Lym [4]: 82.8%
MCHC [4]: 34.1%
MCV [4]: 58.1 fL
Mono [4]: 6%
Neu [4]: 10.4%
PT [4]: 11.7 s
Plat [4]: 112.1 x10_4/uL
RBC [4]: 775.2 x10_4/ul
Ret [4]: 2.8%
WBC [4]: 129 x10_2/uL
KIDNEY_L [2]: 1.1 g
KIDNEY_R [2]: 1.1 g
KIDNEY_TOTAL [2]: 2.2 g
KIDNEY_L [3]: 1.2 g
KIDNEY_R [3]: 1.3 g
KIDNEY_TOTAL [3]: 2.5 g
KIDNEY_L [4]: 1.4 g
KIDNEY_R [4]: 1.4 g
KIDNEY_TOTAL [4]: 2.8 g
LIVER [2]: 13 g
LIVER [3]: 17 g
LIVER [4]: 17.8 g
ALP [2]: 823.8 IU/L
ALT [2]: 36.6 IU/L
AST [2]: 60.6 IU/L
BUN [2]: 21.2 mg/dL
CRE [2]: 0.6 mg/dL
Ca [2]: 10.6 mg/dL
Cl [2]: 106 meq/L
DBIL [2]: 0.018 mg/dL
GLC [2]: 208.6 mg/dL
IP [2]: 7.5 mg/dL
K [2]: 4.5 meq/L
LDH [2]: 91.2 IU/L
Na [2]: 141.8 meq/L
PL [2]: 139.2 mg/dL
RALB [2]: 4.1 g/dL
TBIL [2]: 0.4 mg/dL
TC [2]: 74.2 mg/dL
TG [2]: 72.2 mg/dL
TP [2]: 5.9 g/dL
gamma-GTP [2]: 0.8 IU/L
ALP [3]: 888.2 IU/L
ALT [3]: 33 IU/L
AST [3]: 66.4 IU/L
BUN [3]: 23 mg/dL
CRE [3]: 0.6 mg/dL
Ca [3]: 10.7 mg/dL
Cl [3]: 105 meq/L
DBIL [3]: 0.004 mg/dL
GLC [3]: 195.4 mg/dL
IP [3]: 7.2 mg/dL
K [3]: 4.6 meq/L
LDH [3]: 82.2 IU/L
Na [3]: 141 meq/L
PL [3]: 155.2 mg/dL
RALB [3]: 4.1 g/dL
TBIL [3]: 0.4 mg/dL
TC [3]: 77 mg/dL
TG [3]: 120 mg/dL
TP [3]: 6 g/dL
gamma-GTP [3]: 1 IU/L
ALP [4]: 831.6 IU/L
ALT [4]: 37.2 IU/L
AST [4]: 65 IU/L
BUN [4]: 25.8 mg/dL
CRE [4]: 0.6 mg/dL
Ca [4]: 10.5 mg/dL
Cl [4]: 107.2 meq/L
DBIL [4]: 0.002 mg/dL
GLC [4]: 198.4 mg/dL
IP [4]: 7 mg/dL
K [4]: 4.6 meq/L
LDH [4]: 92.6 IU/L
Na [4]: 144 meq/L
PL [4]: 169 mg/dL
RALB [4]: 4.1 g/dL
TBIL [4]: 0.4 mg/dL
TC [4]: 80.4 mg/dL
TG [4]: 159.4 mg/dL
TP [4]: 6.3 g/dL
gamma-GTP [4]: 1.4 IU/L
TERMINAL_BW [5]: 201.1 g
APTT [5]: 17.3 s
Bas [5]: 0%
Eos [5]: 1.4%
Fbg [5]: 222 mg/dL
Hb [5]: 14.1 g/dL
Ht [5]: 41.6%
Lym [5]: 66.8%
MCHC [5]: 34%
MCV [5]: 64.1 fL
Mono [5]: 8.6%
Neu [5]: 22.8%
PT [5]: 11.6 s
Plat [5]: 113.5 x10_4/uL
RBC [5]: 649.4 x10_4/ul
Ret [5]: 6.7%
WBC [5]: 100.9 x10_2/uL
KIDNEY_L [5]: 0.9 g
KIDNEY_R [5]: 0.9 g
KIDNEY_TOTAL [5]: 1.9 g
LIVER [5]: 10.5 g
ALP [5]: 841.4 IU/L
ALT [5]: 37.4 IU/L
AST [5]: 63.8 IU/L
BUN [5]: 21.8 mg/dL
CRE [5]: 0.5 mg/dL
Ca [5]: 10.9 mg/dL
Cl [5]: 105 meq/L
DBIL [5]: 0.06 mg/dL
GLC [5]: 178.2 mg/dL
IP [5]: 6.7 mg/dL
K [5]: 4.4 meq/L
LDH [5]: 97.2 IU/L
Na [5]: 141.4 meq/L
PL [5]: 168.2 mg/dL
RALB [5]: 4.1 g/dL
TBIL [5]: 0.3 mg/dL
TC [5]: 91.2 mg/dL
TG [5]: 60.6 mg/dL
TP [5]: 5.6 g/dL
gamma-GTP [5]: 1.8 IU/L
TERMINAL_BW [6]: 235.6 g
TERMINAL_BW [7]: 287.5 g
TERMINAL_BW [8]: 332.9 g
APTT [6]: 19.1 s
Bas [6]: 0%
Eos [6]: 1.2%
Fbg [6]: 275.5 mg/dL
Hb [6]: 13.3 g/dL
Ht [6]: 39.3%
Lym [6]: 62.5%
MCHC [6]: 33.7%
MCV [6]: 63 fL
Mono [6]: 6.2%
Neu [6]: 30.2%
PT [6]: 11.2 s
Plat [6]: 135.9 x10_4/uL
RBC [6]: 624.5 x10_4/ul
Ret [6]: 11.2%
WBC [6]: 138.2 x10_2/uL
APTT [7]: 17.7 s
Bas [7]: 0%
Eos [7]: 1.4%
Fbg [7]: 250.2 mg/dL
Hb [7]: 13.6 g/dL
Ht [7]: 39.4%
Lym [7]: 55.8%
MCHC [7]: 34.4%
MCV [7]: 65.7 fL
Mono [7]: 9.8%
Neu [7]: 32.8%
PT [7]: 11.6 s
Plat [7]: 141.2 x10_4/uL
RBC [7]: 605 x10_4/ul
Ret [7]: 14%
WBC [7]: 143.9 x10_2/uL
APTT [8]: 18.9 s
Bas [8]: 0%
Eos [8]: 1.4%
Fbg [8]: 235.2 mg/dL
Hb [8]: 15.4 g/dL
Ht [8]: 45.6%
Lym [8]: 71.8%
MCHC [8]: 33.7%
MCV [8]: 59.4 fL
Mono [8]: 8%
Neu [8]: 19.2%
PT [8]: 11.9 s
Plat [8]: 118.9 x10_4/uL
RBC [8]: 769.2 x10_4/ul
Ret [8]: 4%
WBC [8]: 126.2 x10_2/uL
KIDNEY_L [6]: 1.1 g
KIDNEY_R [6]: 1.1 g
KIDNEY_TOTAL [6]: 2.2 g
KIDNEY_L [7]: 1.2 g
KIDNEY_R [7]: 1.3 g
KIDNEY_TOTAL [7]: 2.5 g
KIDNEY_L [8]: 1.3 g
KIDNEY_R [8]: 1.3 g
KIDNEY_TOTAL [8]: 2.6 g
LIVER [6]: 12.7 g
LIVER [7]: 16.1 g
LIVER [8]: 17 g
ALP [6]: 860.8 IU/L
ALT [6]: 32.2 IU/L
AST [6]: 63.2 IU/L
BUN [6]: 20 mg/dL
CRE [6]: 0.6 mg/dL
Ca [6]: 10.9 mg/dL
Cl [6]: 105.5 meq/L
DBIL [6]: 0.0275 mg/dL
GLC [6]: 199.5 mg/dL
IP [6]: 6.6 mg/dL
K [6]: 4.4 meq/L
LDH [6]: 75.8 IU/L
Na [6]: 141.2 meq/L
PL [6]: 166.8 mg/dL
RALB [6]: 4 g/dL
TBIL [6]: 0.4 mg/dL
TC [6]: 92 mg/dL
TG [6]: 68.5 mg/dL
TP [6]: 6 g/dL
gamma-GTP [6]: 1.5 IU/L
ALP [7]: 842 IU/L
ALT [7]: 31.4 IU/L
AST [7]: 60.8 IU/L
BUN [7]: 24.6 mg/dL
CRE [7]: 0.6 mg/dL
Ca [7]: 10.7 mg/dL
Cl [7]: 105.4 meq/L
DBIL [7]: 0.008 mg/dL
GLC [7]: 184.8 mg/dL
IP [7]: 7 mg/dL
K [7]: 4.5 meq/L
LDH [7]: 79.8 IU/L
Na [7]: 141.6 meq/L
PL [7]: 171 mg/dL
RALB [7]: 4 g/dL
TBIL [7]: 0.4 mg/dL
TC [7]: 90.4 mg/dL
TG [7]: 98.8 mg/dL
TP [7]: 5.9 g/dL
gamma-GTP [7]: 2.2 IU/L
ALP [8]: 656.6 IU/L
ALT [8]: 27.6 IU/L
AST [8]: 57.8 IU/L
BUN [8]: 24 mg/dL
CRE [8]: 0.6 mg/dL
Ca [8]: 10.9 mg/dL
Cl [8]: 107.4 meq/L
DBIL [8]: 0.018 mg/dL
GLC [8]: 180.6 mg/dL
IP [8]: 6.8 mg/dL
K [8]: 4.5 meq/L
LDH [8]: 71.2 IU/L
Na [8]: 144.4 meq/L
PL [8]: 182.2 mg/dL
RALB [8]: 4.2 g/dL
TBIL [8]: 0.4 mg/dL
TC [8]: 100.4 mg/dL
TG [8]: 102.6 mg/dL
TP [8]: 6.2 g/dL
gamma-GTP [8]: 1.6 IU/L
